# From US9226912B2, “Acetyltanshinone IIA (ATA) as anticancer agent” (Nanyang Technological University, priority 2011, dated 2016)
# “Also recorded” adds a separate entry of the source. Read-outs that look alike come from different tables or passages of the source.
# Legend:
# [1] = tested on: ESR1 mRNA in MCF-7 cells; experiment: Real-time PCR of ESR1 mRNA level; settings: 100 pM estrogen plus 6 μM compound
# Description: MCF-7 cells cultured in the charcoal-stripped medium were used as control for the 0 h sample.
# [2] = tested on: Bax and cytochrome c in MDA-MB-435 cells; experiment: Bax translocation and cytochrome c release, cell fractionation Western blot and immunofluorescence; type: cell-based, human; settings: 5 μM ATA, 24 h, normalized to control 1.0
# Description: The concentration of ATA and PG were 5 μM and 20 μM, respectively. […] Scale bar=10 μm.
# The value of CY/MT represents the ratio of integrated band intensity of cytosol fraction (CY) over corresponding integrated band intensity of mitochondrial fraction (MT). The ratio was normalized by the control group. Two proteins were used as internal markers to judge the quality of cell fractionation experiment: Cox IV for mitochondria and β-tubulin mainly for cytosol.
# The subcellular localization changes of Bax and cytochrome c during ATA-induced apoptosis were first examined using immunofluorescence staining.
# It was further tested, whether PG could prevent ROS generation after ATA treatment.
# [3] = tested on: SK-N-SH; experiment: IC50 of ATA at 72 h; type: cell-based; settings: Homo sapiens, SK-N-SH neuroblastoma
# Description: (§1) The cytotoxcitiy of ATA was assessed in cancer cell lines and normal cells. In order to do so the IC50 of ATA at 72 h in multiple cancer cell lines or normal cell lines including muscle and fibroblast cells was evaluated.
# [4] = tested on: HeLa; experiment: IC50 of ATA at 72 h; type: cell-based; settings: Homo sapiens, HeLa cervical cancer cells
# Description: as §1
# [5] = tested on: HepG2; experiment: IC50 of ATA at 72 h; type: cell-based; settings: Homo sapiens, HepG2 liver cancer cells
# Description: as §1
# [6] = tested on: K-562; experiment: IC50 of ATA at 72 h; type: cell-based; settings: Homo sapiens, K562, K-562 leukaemia cells
# Description: as §1
# [7] = tested on: Caco2; experiment: IC50 of ATA at 72 h; type: cell-based; settings: Homo sapiens, Caco-2, Caco2 colorectal adenocarcinoma
# Description: as §1
# [8] = tested on: HCT 15; experiment: IC50 of ATA at 72 h; type: cell-based; settings: Homo sapiens, HCT 15 colorectal adenocarcinoma
# Description: as §1
# [9] = tested on: HCT 116; experiment: IC50 of ATA at 72 h; type: cell-based; settings: Homo sapiens, HCT 116 colorectal adenocarcinoma
# Description: as §1
# [10] = tested on: IMR-90 (non-cancerous); experiment: IC50 of ATA at 72 h; type: cell-based; settings: Homo sapiens, IMR-90 fibroblast (normal lung cells)
# Description: as §1
# [11] = tested on: C2C12 (non-cancerous); experiment: IC50 of ATA at 72 h; type: cell-based; settings: Mus musculus, C2C12 myoblast (normal muscle cells)
# Description: as §1
# [12] = tested on: A549; experiment: IC50 of ATA at 72 h; type: cell-based; settings: Homo sapiens, A549 lung cancer cells
# Description: as §1
# [13] = tested on: HeLa cells; experiment: ATA-induced cell death by cell counting under a microscope; type: cell-based; settings: 10 μM or 20 μM ATA, 24 h or 48 h, YFP-Bcl-2 transfected HeLa
# Description: HeLa cells were treated with 10 μM ATA for 12, 24, 36, and 48 h. The β-tubulin protein was probed as a loading control. […] HeLa cells were pre-treated with 2 μM pan-caspase inhibitor (z-VAD-fmk) for 2 h before ATA addition. Then 10 μM or 20 μM ATA were added. After 24 h and 48 h treatment, the number of died cells was counted under a microscope. (* p<0.01, compared with cells treated with ATA only). Control: cells without any treatment.
# Overexpression of Bcl-2 inhibited ATA-induced cell death. HeLa cells transfected with either yellow fluorescent protein (YFP) (vector control) or YFP-Bcl-2 (Bcl-2) were treated with ATA at 10 or 20 μM. The percentage of cell death from YFP-positive cells was determined by cell counting under a fluorescence microscope. (* p<0.01, compared with vector control groups).
# The inventors of the present invention have shown for the first time that ATA can activate the apoptotic pathway in cancer cells. […]
# HeLa cells transfected with YFP-Bcl-2 or YFP only were treated with 10 μM or 20 μM ATA. After 24 h or 48 h treatment, the percentage of cell death in each sample was calculated by counting the numbers of fluorescence-positive cells either live (attached with a normal cell morphology) or dead (detached with a shrunk morphology) under a fluorescence microscope. […]
# [14] = tested on: HL-60; experiment: IC50 and LC50 of ATA at 48 h; type: cell-based; settings: Homo sapiens, HL-60 leukemia
# [15] = tested on: SK-BR-3; experiment: IC50 and LC50 of ATA at 48 h; type: cell-based; settings: Homo sapiens, SK-BR-3 breast cancer
# [16] = tested on: MCF-7 cells; experiment: Combinatorial effect of ATA with paclitaxel, MTT assay; type: cell-based; settings: Homo sapiens, read-out: cell growth inhibition rate
# Description: The effect was determined by measuring the rates of cell growth inhibition using MTT assay. (* p<0.01, compared with cells treated with either paclitaxel alone or ATA alone).
# The inventors of the present invention have shown for the first time that ATA can increase the cytotoxic effect of paclitaxel. In the tests (FIG. 16) with five concentrations of ATA at 10, 5, 2.5, 1.25, 0.625 μM and five concentrations of paclitaxel at 1000, 100, 10, 1, 0.1 nM were used.
# [17] = tested on: SiHa; experiment: IC50 and LC50 of ATA at 48 h; type: cell-based; settings: Homo sapiens, SiHa cervical cancer
# [18] = tested on: HER2 protein in BT474 cells; experiment: HER2 protein level by Western blotting; type: cell-based, human; settings: 6 μM ATA or 1 μM fulvestrant
# Description: Cells were treated with 6 μM ATA or 1 μM fulvestrant for indicated times and analyzed by Western blotting.
# [19] = tested on: Four types of cancer cells; experiment: ATA versus TIIA, cell viability by MTT assay after 48 h; type: cell-based; settings: 10 μM or 20 μM
# Description: Four types of cancer cells were treated with ATA or TIIA at either 10 μM or 20 μM and the cell viability was measured by MTT assay after 48 h of compound addition. * p<0.01.
# [20] = tested on: BT474; experiment: Growth inhibition at 72 h by MTT assay
compound,measurement,setting,value
"CC(=O)Oc1c(OC(C)=O)c2c(C)coc2c2ccc3c(c12)CCCC3(C)C [ATA, 1,6,6-trimethyl-8,9-dihydro-10,11-diacetoxyl-7H-naphtho[1,2-g][1]benzofuran]",level of ESR1 mRNA over control,"[1]; 12 h, charcoal-stripped medium",55%
same,level of ESR1 mRNA over control,"[1]; 24 h, charcoal-stripped medium",31%
same,level of ESR1 mRNA over control,"[1]; 24 h, normal medium",about 30%
same,level of ESR1 mRNA over control,"[1]; 36 h and 48 h, charcoal-stripped medium",about 50%
same,ratio of Bax level in the cytosol to that in the mitochondria,[2],< 0.1
same,ratio of cytochrome c level in cytosol to that in mitochondria,[2],7.5
same,IC50,[3],1240 ± 120 nM
same,IC50,[4],690 ± 190 nM
same,IC50,[5],4270 ± 730 nM
same,IC50,[6],1690 ± 340 nM
same,IC50,[7],2500 ± 450 nM
same,IC50,[8],560 ± 80 nM
same,IC50,[9],2280 ± 490 nM
same,IC50,[10],15500 ± 710 nM
same,IC50,[11],10200 ± 1440 nM
same,IC50,[12],810 ± 130 nM
same,percentage of cell death in Bcl-2 over expressing cells versus normal Bcl-2 level,[13],significantly lower
same,CC50,[14],8530 ± 200 nM
same,IC50,[14],2980 ± 370 nM
same,IC50,[15],290 nM
same,CC50,[15]; kill 50% of the cells,5100 ± 1920 nM
same,inhibition at 2.5 µM,"[16]; MCF7, 2.5 μM ATA in combination with paclitaxel 1 nM",~89%
same,inhibition at 2.5 µM,"[16]; MCF7, ATA alone at 2.5 μM",71%
same,CC50,[17],12300 ± 680 nM
same,IC50,[17],1960 ± 490 nM
same,level of HER2 protein,[18],can reduce the level of HER2 protein; also recorded: reduced the level of ERα and HER2
same,growth inhibition effect compared with TIIA,[19],stronger growth inhibition effect than TIIA
same,IC50 ratio of tamoxifen/ATA,"[20]; BT474 (ER+/HER2+), 72 h",6.2
same,IC50,"[20]; Homo sapiens, BT-474, 72 h",1000 nM
same,inhibition at 3.13 µM,"[20]; Homo sapiens, BT-474, 72 h, read-out: growth inhibition rate",146%
